This note sets out measurements from patent publication US12022830B2, “Formulations of metal and ascorbic acid complexes, their obtaining and use” (INTERMAG SP. Z O.O., priority 2017, dated 2024).

The test system of data set [1] is Cladosporium herbarum. The data set can be described thus: Infestation of wheat spikes by Cladosporium herbarum. It counts as in vivo. Conditions: sprayed plants, control 20%. An excerpt: (§1) In the case of diseases attacking spikes, on the control combination, infestation by Cladosporium herbarum at 20%, by Septoria nodorum at 10% and by Gibberella avenacea at 10% were found. On sprayed plants, infestations were 1%, 1% and 0% respectively.

The subject of data set [2] is Septoria nodorum. The data set can be described thus: Infestation of wheat spikes by Septoria nodorum. The format is in vivo. The following applies: sprayed plants, control 10%.
From the text: as §1

A short description of data set [3]: Study of solution stability for a given complex. The format is physicochemical.
In data set [4] the test system is Iceberg cabbage lettuce (Lactuca sativa) of Rubette type. As to the kind of experiment: Titanyl ascorbates in cultivation of iceberg lettuce, head mass, chlorophyll, flavonoids. The format is in vivo. Conditions: foliar twice, 0.00085% Ti, total 3.4 g Ti/ha. The method, then:
Iceberg cabbage lettuce (Lactuca sativa) of Rubette type was cultivated in a plastic tunnel in pots with a capacity of 3 l filled with a peat substrate. […] In two applications, the total titanium dose per hectare was 3.4 g Ti/ha. The experiment was performed in a random block system, combinations were drawn in 4 blocks. […] Flavonoids are antioxidant compounds, they protect plant cell structures against reactive oxygen species formed under the influence of abiotic and biotic stress factors. These compounds are the first to be synthesised when unfavourable conditions of the growing environment occur.

In data set [5] the test system is Botrytis cinerea. The following applies: foliar, 32.6 g TiO(Asc)2.2H2O/ha, three dates. The procedure:
(§2) The experiments on the effect of the formulations according to the invention (liquid preparation obtained after dissolving the solid blend, according to the invention) were performed on winter oilseed rape, winter wheat and corn plants at the Institute of Plant Protection in Poznan at the Experimental Station in Winna Góra.

Data set [6] relates to wheat of Figura type. Conditions: foliar, 32.6 g TiO(Asc)2.2H2O/ha, BBCH 22-29, 30-51, 51-73. The method, then:
as §2

The subject of data set [7] is winter oilseed rape of Artoga type. The following applies: foliar, 32.6 g TiO(Asc)2.2H2O/ha, BBCH 21-36, 50-61, 69-73. The procedure:
as §2

Data set [8] deals with cabbage seed weevil. The following applies: foliar, 32.6 g TiO(Asc)2.2H2O/ha, three dates. The method, then:
as §2

Data set [9] has as its system corn of Wilga type. The following applies: foliar, 32.6 g TiO(Asc)2.2H2O/ha, BBCH 12-14, 18-20, 35-39. The procedure:
as §2

Data set [10] concerns Alternaria brassicae. The following applies: foliar, 32.6 g TiO(Asc)2.2H2O/ha, three dates. The method, then: as §2
Data set [11] has as its system butterhead lettuce. The data set can be described thus: Cultivation of butterhead lettuce, uptake of nutrients. Conditions: aboveground parts, dry mass, 20th day, two sprays, 0.0085% Ti. It counts as in vivo. The method, then: TiO(OH)(C6H7O6).1H2O was used in the amount of 9.7 g/ha (0.005%, 0.0085% Ti), (TiO(C6H7O6)2.2H2O) was used in the amount of 16.3 g/ha (0.008%, 0.0085% Ti), TiO(C6H7O6)3.3H2O was used in the amount of 22.9 g/ha (0.011%, 0.0085% Ti), TiO(C6H7O6)4.5H2O was used in the amount of 30.9 g/ha (0.015%, 0.0085% Ti) in a single spray after previously dissolving them in 200 l of water. The spraying was performed with a manual sprayer at the smallest possible drop setting. Plants were sprayed evenly from a distance of about 30 cm.
Substrate: a mixture of peat deacidified with chalk (producer: Hollas) and rinsed quartz sand with a granulation of 4-8 mm. Volume ratio of the mixture: 1:4. Agrofoska (Intermag) fertiliser in the amount of 3 kg/m^3 was added to the substrate. Pots with a volume of about 3 l were used.
Spraying was performed twice with the preparation with the same concentrations of working liquid: spray 1 on the 7th day of the experiment; spray 2 on the 14th day of the experiment.
The experiment was randomised and there were 10 repetitions for each combination (1 repetition=one pot)
(§3) The content of nutrients was tested in the aboveground parts of plants, based on dry mass content.

The subject of data set [12] is Gibberella avenacea. As to the kind of experiment: Infestation of wheat spikes by Gibberella avenacea. The format is in vivo. Conditions: sprayed plants, control 10%.
From the text: as §1

Data set [13] deals with fragility of stem base. As to the kind of experiment: Infestation of wheat through the fragility of stem base. It counts as in vivo. The following applies: treated plants; control 48% infested plants.
For data set [14], the system named is cereal leaf beetle. The data set can be described thus: Infestation of wheat by cereal leaf beetle. The format is in vivo. Conditions: foliar, 32.6 g TiO(Asc)2.2H2O/ha, three dates.
In data set [15] the test system is corn borer moth. The data set can be described thus: Infestation of corn by corn borer moth. The format is in vivo. The following applies: foliar, 32.6 g TiO(Asc)2.2H2O/ha, three dates.
Data set [16] concerns fusarium foot and root rot. As to the kind of experiment: Fusarium foot and root rot on wheat. The format is in vivo. Conditions: sprayed plants; control 12% of infestations.
The subject of data set [17] is wheat. As to the kind of experiment: Cultivation of wheat, chlorophyll content and uptake of nutrients. It counts as in vivo. Conditions: for Content of chlorophyll in leaves: 20th day of the experiment; for Fe content / K content / P content / Ti content / Zn content: aboveground parts, dry mass, 20th day. The procedure: Experiments for the use of titanium complex in the solid formulation TiO(Asc)2.2H2O on wheat were performed analogously to Example 14.
as §3

Data set [18] deals with rape. As to the kind of experiment: Cultivation of rape, vegetative mass and uptake of nutrients. The format is in vivo. The following applies: for Number of plant leaves / Total wet mass of the aboveground part / Wet mass of leaves / Wet mass of stem: 20th day of the experiment; for Fe content / Mg content / Mn content / P content / Si content / Ti content / Zn content: aboveground parts, dry mass, 20th day. The procedure:
Experiments for the use of titanium complex for rape were performed analogously to Example 14.
as §3

Setting [19] is: 5% solution obtained by dissolving in water.

Consider `O.O.O=C1OC(C(O)CO)C([O-])=C1O.O=C1OC(C(O)CO)C([O-])=C1O.[O]=[Ti+2]` (stereo not drawn) [TiO(C6H7O6)2•2H2O, titanyl ascorbate], for which the “infestation by Cladosporium herbarum” value in [1] was 1%. The “infestation by Septoria nodorum” value in data set [2] is 1%. In data set [3] (setting [19]), the “stable during long storage” value was “up to 12 months” and the “temperature at which the solution remains stable” value was −5 to +40 °C. In addition, the “behaviour after freezing and thawing” value in [3] (5% solution, overcooled below −7° C., then raised above 0° C.) is reported as “retains its original physicochemical properties”. In data set [3] (complexes in the form of solutions), the “stability of the solution among the complexes” value is “most stable”. In addition, in [4], the Chlorophyll worked out at 27.4 μg/cm^2, the Dry mass is 7.23 g, the Flavonoids amounted to 0.32 μg/cm^2 and the Mass of head was 82.8 g. Besides, the “Infestation of siliques by Botrytis cinerea smaller than the control combination” value in data set [5] was 77%. Besides, in data set [6], the “Wheat yield increased compared to the control combination” value was 16 % (m/m). In addition, the “Rape yield increased compared to the control combination” value in data set [7] is given as 15%. Further, the “Siliques damaged by cabbage seed weevil fewer than in the control combination” value in data set [8] turned out to be 80%. Also, the “Corn yield increased compared to the control combination” value in [9] is recorded as 13 % (m/m). Moreover, in [10], the “Infestation of siliques by Alternaria brassicae smaller than the control combination” value is reported as 52%. In data set [11], the B content turned out to be 83.31 mg/kg, the Ca content came to 17.41 g/kg, the Cu content came to 7.13 mg/kg and the Fe content is 794.44 mg/kg. In addition, in data set [11], the K content was 7.48 g/kg, the Mg content is given as 6.66 g/kg, the Mn content is reported as 687.51 mg/kg and the S content is 7.41 g/kg. Further, in data set [11], the Ti content came out at 4.27 mg/kg and the Zn content was determined as 154.18 mg/kg. Moreover, in data set [12], the “infestation by Gibberella avenacea” value was 0%. The “infestation through the fragility of stem base” value in [13] turned out to be 4%. Also, the “decrease in the infestation by cereal leaf beetle in comparison to untreated plants” value in data set [14] is on record as 74%. Moreover, in data set [15], the “decrease in the infestation by corn borer moth in comparison to untreated plants” value was 43%. Moreover, in data set [16], the “symptoms of fusarium foot and root rot” value is “not any symptoms”. Also, in [17], the “Content of chlorophyll in leaves” value was found to be 48.03 SPAD, the Fe content is recorded as 85.056 mg/kg, the K content was determined as 55.27 g/kg and the P content turned out to be 10.43 g/kg. In data set [17], this molecule came in with a Ti content of 1.390 mg/kg and a Zn content of 48.850 mg/kg.
`O.O=C1OC(C(O)CO)C([O-])=C1O.[OH-].[O]=[Ti+2]` (stereo not drawn) [TiO(OH)(C6H7O6)•1H2O, titanyl ascorbate]: in data set [18], the “Number of plant leaves” value was determined as 8.28, the “Total wet mass of the aboveground part” value was 38.3, the “Wet mass of leaves” value is recorded as 19.00 g and the “Wet mass of stem” value was determined as 21.53 g. In data set [18], this molecule showed a Fe content of 1957.19 mg/kg, a Mg content of 8.859 g/kg, a Mn content of 1350.53 mg/kg and a P content of 8.74 g/kg. Moreover, in [18], the Si content is reported as 118.21 mg/kg, the Ti content is reported as 1.55 mg/kg and the Zn content was 362.63 mg/kg. Moreover, in data set [17], the “Content of chlorophyll in leaves” value stood at 47.17 SPAD, the Fe content worked out at 96.280 mg/kg, the K content turned out to be 57.21 g/kg and the P content is given as 9.86 g/kg. For the same molecule, in data set [17], the Ti content came out at 1.444 mg/kg and the Zn content turned out to be 47.880 mg/kg.
titanyl ascorbate [TiO(C6H7O6)3•3H2O]: in data set [18], the “Number of plant leaves” value was 7.94, the “Total wet mass of the aboveground part” value is given as 39.61, the “Wet mass of leaves” value was determined as 17.74 g and the “Wet mass of stem” value is recorded as 21.58 g. For the same molecule, in [18], the Fe content was 1739.07 mg/kg, the Mg content is 7.86 g/kg, the Mn content amounted to 1440.47 mg/kg and the P content turned out to be 11.43 g/kg. In [18], this molecule registered a Si content of 159.40 mg/kg, a Ti content of 1.07 mg/kg and a Zn content of 413.68 mg/kg. Also, in [11], the B content is on record as 72.35 mg/kg, the Ca content is reported as 17.84 g/kg, the Cu content is 5.46 mg/kg and the Fe content was 842.63 mg/kg. In [11], the K content came to 6.97 g/kg, the Mg content was 6.03 g/kg, the Mn content is listed as 757.37 mg/kg and the Si content came out at 257.62 mg/kg. Besides, in [11], the Ti content is 2.37 mg/kg and the Zn content is recorded as 155.38 mg/kg. In data set [17], the “Content of chlorophyll in leaves” value is recorded as 45.60 SPAD, the Fe content is given as 97.390 mg/kg, the K content is 57.22 g/kg and the P content was determined as 9.47 g/kg. In data set [17], the Ti content is on record as 1.311 mg/kg and the Zn content is reported as 51.410 mg/kg.
In the case of titanyl ascorbate [TiO(C6H7O6)4•5H2O], in data set [17], the “Content of chlorophyll in leaves” value stood at 47.06 SPAD, the Fe content amounted to 100.910 mg/kg, the K content is given as 53.29 g/kg and the P content stood at 10.09 g/kg. In addition, in [17], the Ti content is listed as 1.150 mg/kg and the Zn content was found to be 44.290 mg/kg.
